Test results reported in PubChem BioAssay AID1259407 (Chemical Carcinogenesis Research Information System (CCRIS), 2018).
The source made the active and inactive calls. The rule behind the calls is not given here.

Tested on: CCRIS mutagenicity, Ames/micronucleus/aberration tests
Experiment: CCRIS mutagenicity studies

Measured: mutagenic call

O=C(CCl)c1ccc(Cl)cc1Cl
inactive: Test System: AMES SALMONELLA TYPHIMURIUM, Strain/Indicator: TA98, Metabolic Activation: HAMSTER, LIVER, S-9, AROCLOR 1254, Method: STANDARD PLATE inactive; negative | Test System: AMES SALMONELLA TYPHIMURIUM, Strain/Indicator: TA98, Metabolic Activation: NONE, Method: STANDARD PLATE inactive; negative | Test System: AMES SALMONELLA TYPHIMURIUM, Strain/Indicator: TA98, Metabolic Activation: RAT, LIVER, S-9, AROCLOR 1254, Method: STANDARD PLATE inactive; negative | Test System: AMES SALMONELLA TYPHIMURIUM, Strain/Indicator: TA100, Metabolic Activation: HAMSTER, LIVER, S-9, AROCLOR 1254, Method: STANDARD PLATE inactive; negative | Test System: AMES SALMONELLA TYPHIMURIUM, Strain/Indicator: TA100, Metabolic Activation: NONE, Method: STANDARD PLATE inactive; negative | Test System: AMES SALMONELLA TYPHIMURIUM, Strain/Indicator: TA100, Metabolic Activation: RAT, LIVER, S-9, AROCLOR 1254, Method: STANDARD PLATE inactive; negative | Test System: AMES SALMONELLA TYPHIMURIUM, Strain/Indicator: TA1535, Metabolic Activation: HAMSTER, LIVER, S-9, AROCLOR 1254, Method: STANDARD PLATE inactive; negative | Test System: AMES SALMONELLA TYPHIMURIUM, Strain/Indicator: TA1535, Metabolic Activation: NONE, Method: STANDARD PLATE inactive; negative | Test System: AMES SALMONELLA TYPHIMURIUM, Strain/Indicator: TA1535, Metabolic Activation: RAT, LIVER, S-9, AROCLOR 1254, Method: STANDARD PLATE inactive; negative | Test System: AMES SALMONELLA TYPHIMURIUM, Strain/Indicator: TA1537, Metabolic Activation: HAMSTER, LIVER, S-9, AROCLOR 1254, Method: STANDARD PLATE inactive; negative | Test System: AMES SALMONELLA TYPHIMURIUM, Strain/Indicator: TA1537, Metabolic Activation: NONE, Method: STANDARD PLATE inactive; negative | Test System: AMES SALMONELLA TYPHIMURIUM, Strain/Indicator: TA1537, Metabolic Activation: RAT, LIVER, S-9, AROCLOR 1254, Method: STANDARD PLATE inactive; negative | Test System: MOUSE LYMPHOMA, Strain/Indicator: L5178Y (TK+/TK-), Metabolic Activation: NONE, Method: SUSPENSION/PLATE inactive; negative. reevaluation of results: negative | Test System: MOUSE LYMPHOMA, Strain/Indicator: L5178Y (TK+/TK-), Metabolic Activation: RAT, LIVER, S-9, AROCLOR 1254, Method: SUSPENSION/PLATE inactive; negative. reevaluation of results: negative

Clc1ccccc1
inactive: End Point: IN VITRO CHROMOSOMAL ABERRATIONS, Test System: CHO CELLS, Metabolic Activation: NONE inactive; negative | End Point: IN VITRO CHROMOSOMAL ABERRATIONS, Test System: CHO CELLS, Metabolic Activation: RAT, LIVER, S-9, AROCLOR 1254 inactive; negative; previous trial yielded a positive response at 150 ug/ml but no dose-re | Test System: AMES SALMONELLA TYPHIMURIUM, Strain/Indicator: TA98, Metabolic Activation: HAMSTER, LIVER, S-9, AROCLOR 1254, Method: PREINCUBATION inactive; negative | Test System: AMES SALMONELLA TYPHIMURIUM, Strain/Indicator: TA98, Metabolic Activation: NONE, Method: PREINCUBATION inactive; negative | Test System: AMES SALMONELLA TYPHIMURIUM, Strain/Indicator: TA98, Metabolic Activation: RAT, LIVER, S-9, AROCLOR 1254, Method: PREINCUBATION inactive; negative | Test System: AMES SALMONELLA TYPHIMURIUM, Strain/Indicator: TA100, Metabolic Activation: HAMSTER, LIVER, S-9, AROCLOR 1254, Method: PREINCUBATION inactive; negative | Test System: AMES SALMONELLA TYPHIMURIUM, Strain/Indicator: TA100, Metabolic Activation: NONE, Method: PREINCUBATION inactive; negative | Test System: AMES SALMONELLA TYPHIMURIUM, Strain/Indicator: TA100, Metabolic Activation: RAT, LIVER, S-9, AROCLOR 1254, Method: PREINCUBATION inactive; negative | Test System: AMES SALMONELLA TYPHIMURIUM, Strain/Indicator: TA1535, Metabolic Activation: HAMSTER, LIVER, S-9, AROCLOR 1254, Method: PREINCUBATION inactive; negative | Test System: AMES SALMONELLA TYPHIMURIUM, Strain/Indicator: TA1535, Metabolic Activation: NONE, Method: PREINCUBATION inactive; negative | Test System: AMES SALMONELLA TYPHIMURIUM, Strain/Indicator: TA1535, Metabolic Activation: RAT, LIVER, S-9, AROCLOR 1254, Method: PREINCUBATION inactive; negative | Test System: AMES SALMONELLA TYPHIMURIUM, Strain/Indicator: TA1537, Metabolic Activation: HAMSTER, LIVER, S-9, AROCLOR 1254, Method: PREINCUBATION inactive; negative | Test System: AMES SALMONELLA TYPHIMURIUM, Strain/Indicator: TA1537, Metabolic Activation: NONE, Method: PREINCUBATION inactive; negative | Test System: AMES SALMONELLA TYPHIMURIUM, Strain/Indicator: TA1537, Metabolic Activation: RAT, LIVER, S-9, AROCLOR 1254, Method: PREINCUBATION inactive; negative
